Results published in US6632808B1 (priority 1998, dated 2003).
Like-named read-outs stand apart in the source and are kept apart here. Marks after values point to notes of the source that are not given here.

Key:
[1] = test system: PrP-res formation in scrapie infected neuroblastoma (ScNB) cells; type: cell-based, mouse; details: for % control PrP-res (at 10 μg TSP/ml): 10 μg/ml (~10 μM) meso-porphyrin, relative to untreated ScNB cells; for IC50: ScNB cells
[2] = target: conversion of hamster PrP-sen to PrP-res (Mesocricetus auratus, UniProt P04273); type: biochemical; details: 10 μg/ml tetrapyrrole; for conversion, % of control: mean SD
conversion of hamster PrP-sen to PrP-res, sequence (P04273 23-230 limits assumed): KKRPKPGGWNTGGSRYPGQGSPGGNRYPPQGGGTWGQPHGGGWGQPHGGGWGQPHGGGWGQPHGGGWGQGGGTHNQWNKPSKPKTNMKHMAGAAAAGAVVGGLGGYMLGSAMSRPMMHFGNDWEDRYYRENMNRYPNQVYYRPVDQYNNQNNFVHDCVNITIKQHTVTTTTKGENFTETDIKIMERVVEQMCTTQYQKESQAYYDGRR

[3] = have been reported; cited from earlier work
[4] = mouse, in vivo, ip
[5] = footnote b values are half-way between 10-fold dilutions (~±50%), read-out: IC50 (μM), PrP-res formation, meso-porphyrins

| Molecule | % control PrP-res (at 10 μg TSP/ml) [1] | IC50 [1, 5] [µM] | other results |
| --- | --- | --- | --- |
| C1=Cc2nc1c(-c1ccncc1)c1ccc([nH]1)c(-c1ccncc1)c1nc(c(-c3ccncc3)c3ccc([nH]3)c2-c2ccncc2)C=C1 [T(4-Py)P] | 12 ± 0^a % | – | – |
| C[n+]1ccccc1-c1c2nc(c(-c3cccc[n+]3C)c3ccc([nH]3)c(-c3cccc[n+]3C)c3nc(c(-c4cccc[n+]4C)c4ccc1[nH]4)C=C3)C=C2 [T(N-Me-2-Py)P] | 4 ± 3% | ~5 | inhibition of cell-free conversion, in words [2]: not significantly inhibitory |
| C[n+]1cccc(-c2c3nc(c(-c4ccc[n+](C)c4)c4ccc([nH]4)c(-c4ccc[n+](C)c4)c4nc(c(-c5ccc[n+](C)c5)c5ccc2[nH]5)C=C4)C=C3)c1 [T(N-Me-3-Py)P] | 50 ± 0^a % | – | – |
| C[n+]1ccc(-c2c3nc(c(-c4cc[n+](C)cc4)c4ccc([nH]4)c(-c4cc[n+](C)cc4)c4nc(c(-c5cc[n+](C)cc5)c5ccc2[nH]5)C=C4)C=C3)cc1 [T(N-Me-4-Py)P] | 50 ± 0% | – | conversion, % of control [2]: 66±18% |
| O=C(O)c1ccc(-c2c3nc(c(-c4ccc(C(=O)O)cc4)c4ccc([nH]4)c(-c4ccc(C(=O)O)cc4)c4nc(c(-c5ccc(C(=O)O)cc5)c5ccc2[nH]5)C=C4)C=C3)cc1 [T(Ph-4-COOH)P] | 50 ± 0% | – | – |
| C[N+](C)(C)c1ccc(-c2c3nc(c(-c4ccc([N+](C)(C)C)cc4)c4ccc([nH]4)c(-c4ccc([N+](C)(C)C)cc4)c4nc(c(-c5ccc([N+](C)(C)C)cc5)c5ccc2[nH]5)C=C4)C=C3)cc1 [T(Ph-4-NMe^+3)P] | – | 5 ± 0.8 | inhibition of cell-free conversion, in words [2]: not significantly inhibitory |
| O=S(=O)(O)c1ccc(-c2c3nc(c(-c4ccc(S(=O)(=O)O)cc4)c4ccc([nH]4)c(-c4ccc(S(=O)(=O)O)cc4)c4nc(c(-c5ccc(S(=O)(=O)O)cc5)c5ccc2[nH]5)C=C4)C=C3)cc1 [T(Ph-4-SO^−3)P] | 44 ± 31% | ~5 | tolerability [3]: well tolerated |
| Phthalocyanine tetrasulfonate [PcTS] | – | – | % control PrP-res (at 10 μg Pc/ml) ([1]; 10 μg Pc/ml (about 10 μM) in medium, 3-4 days, band intensity relative to untreated ScNB cells, mean ± SD): <3%; IC50 ([1]; concentration giving 50% inhibition of PrP-res formation relative to control, footnote a values are half-way between 10-fold dilutions (±50%), read-out: IC50 (μM), PrP-res formation, phthalocyanines): 0.5 µM; time detectable in the spleen after treatment had stopped [4]: at least 8 months; conversion, % of control [2]: 0±0% |
